Laboratory results: patent US20210323918A1, “COMPOSITIONS AND METHODS FOR SUPPRESSING AND/OR TREATING A GROWTH RELATED DISEASE AND/OR A CLINICAL CONDITION THEREOF” (CK Biotech Inc., priority 2018, published 2021)

Tested on: growth plates of proximal tibiae of mice
Experiment: Growth plate senescence and longitudinal bone growth in mice
Type: in vivo
Method: Animals. Cxxc5^−/− mice were established in a previous study. See e.g., Kim H. Y. et al. (2015), CXXC5 is a negative feedback regulator of the Wnt/beta-catenin pathway involved in osteoblast differentiation. CELL DEATH DIFFER 22: 912-920. To manipulate growth plate senescence by estrogen, 3-week-old […] Cxxc5^−/− male mice received weekly intramuscular (i.m.) injections of either 70 μg/kg estradiol (E2) cypionate (Sigma-Aldrich) or vehicle (cottonseed oil) for 3 weeks. To investigate the effects of KY19382 treatment on longitudinal bone growth, C57BL/6 male mice were purchased from KOATECH (Gyeonggido, Korea). KY19382 (0.1 ing/kg) was administered daily by intraperitoneal (i.p.) injection to 3- and 7-week-old mice for 2 weeks or to 3-week-old mice for 10 weeks. For BrdU labeling experiments, mice were i.p. injected with 50 mg/kg BrdU (Sigma-Aldrich) before 24 hours to sacrifice. All animal procedures were approved by the Institutional Animal Care and Use Committee (IACUC) of Yonsei University (Korea) and conducted based on the guidelines of the Korean Food and Drug Administration.
Radiographic and histochemical analyses. Plain radiographs were taken using an X-ray apparatus (KODAK DXS 4000 Pro SYSTEM; Carestream Health Rochester, N.Y.). The tissues were fixed in 4% paraformaldehyde (PFA), decalcified in 10% EDTA (pH 7.4), dehydrated, embedded in paraffin, and sectioned to 4 μm thickness (Leica Microsystems, Wetzlar, Germany). The tissues sections were rehydrated and used for further analyses including H&E, TRAP, and itnmunohistochemical (IHC) staining. To perform IHC staining, the sections were incubated with citrate buffer (pH 6.0) at 80° C. for 30 minutes, with 0.05% trypsin working solution (pH 7.8) for 30 minutes at 37° C., or with 0.5% pepsin (Sigma-Aldrich) for 15 minutes at 37° C. Then, the sections were blocked with 5% normal goat serum (NGS; Vector Laboratories, Burlingame, Calif.) and 0.3% triton-x-100 in PBS for 1 hour at room temperature. For 3,3′-diaminobensidine (DAB) staining, the sections were incubated with 0.345% H2O2 for 15 minutes. Before incubating the sections with mouse primary antibody, mouse IgG was blocked using a M.O.M kit (Vector Laboratories). The sections were incubated at 4° C. overnight with the following primary antibodies: anti-β-catenin (BD Bioscience, San Jose, Calif., #610154; 1:50), anti-CXXC5 l (1:200; lab-made) anti-BrdU (DAKO, Carpinteria, Calif., M0744; 1:200), anti-COL2A1 (ThermoFisher Scientific, MA, PAS-11462; 1:100), anti-Ki67 (Abcam, Cambridge, UK, ab15580; 1:200), and anti-RUNX2 (Abeam, ab23981; 1:200). Then, the sections were incubated at room temperature for 1 hour with biotinylated anti-mouse (Vector Laboratories, BA-9200; 1:200) or biotinylated anti-rabbit (Vector Laboratories, BA-1000; 1:200) secondary antibodies. The sections were then incubated in avidin-biotin complex solutions (Vector Laboratories), stained with a DAB kit (Vector Laboratories) for 3-30 minutes, and counterstained with methyl green (Sigma-Aldrich). All incubations were conducted in humid chambers. […] For fluorescence staining, the sections were incubated with primary antibody at 4° C. overnight, followed by incubation with anti-mouse Alexa Fluor 488 (ThermoFisher Scientific, A11008; 1:200) or anti-rabbit Alex Fluor 555 (ThermoFisher Scientific, A21428; 1:200) secondary antibodies at room temperature for 1 hour. The sections were then counterstained with DAPI (Sigma-Aldrich) for 5 minutes and mounted in Gel/Mount media (Biomeda Corporation). All incubations were conducted in dark humid chambers. The fluorescent signals were visualized using a LSM700 META confocal microscope (Carl Zeiss Inc., Thornwood, N.Y.) at excitation wavelengths of 488 nm (Alexa Fluor 488), 543 nm (Alexa Fluor 555), and 405 nm (DAPI).
Immunoblot analyses. […] Protein samples were separated on a 8-12% sodium dodecylsulfate polyacrylamide gel electrophoresis (SDS-PAGE) and transferred to a nitrocellulose membrane (Whatman). […]

[1] = 3-week-old mice, 0.1 mg/kg daily for 2 weeks
[2] = 7-week-old mice, 0.1 mg/kg i.p. daily for 2 weeks

Row | Compound | structural senescence of the tibial growth plate (Cxxc5−/− mice, E2 cypionate 70 μg/kg i.m. once a week for 3 weeks) | length of tibiae (0.1 mg/kg daily for 10 weeks, mice from 3 to 13 weeks of age, vs vehicle) | height of each growth plate zone and BrdU-positive cells [1] | β-catenin-expressing chondrocytes [1] | number of TRAP-positive foci in the growth plate/trabecular interface (3-week-old mice, 0.1 mg/kg daily for 2 weeks, vs vehicle) | nuclear β-catenin in growth plate chondrocytes [2] | numbers of proliferative and hypertrophic chondrocytes per column (BrdU- and RUNX2-positive cells) [2] | total growth plate height, monitored by COL2A1 immunostaining [2] | β-catenin and chondrogenic markers (COL2A1, RUNX2, MMP13) in the growth plate, immunoblot [2] | TRAP-positive foci (mice treated from 7 to 9 weeks of age, 0.1 mg/kg, vs vehicle)
1 | 17β-estradiol [Compound E2] | hardly observed | – | – | – | – | – | – | – | – | –
2 | CO/N=C1/C(=C2/C(=O)Nc3cc(Cl)c(Cl)cc32)Nc2ccccc21 [KY19382, 5,6-dichloroindirubin-3′-methoxime] | – | significantly increased | elevated | increased | not different | dramatically increased | increased numbers | significantly increased | increased | elevated
